Here are results for seven compounds from paper PMC9259562 (Scientific Reports, 2022).

Square brackets hold non-standard residues; d marks the D form. Peptide text beside a SMILES is read from it. βAla = NCCC(=O)O

One assay concerns the target Stx2a A-subunit (Escherichia phage 933W, UniProt P09385). The assay can be described thus: biochemical. It is filed as binding, Escherichia coli.
Assay [1] relates to Stx2a cytotoxicity in Vero cells. To be noted: 72 h.

Chain of Stx2a A-subunit (P09385 23-319 limits assumed): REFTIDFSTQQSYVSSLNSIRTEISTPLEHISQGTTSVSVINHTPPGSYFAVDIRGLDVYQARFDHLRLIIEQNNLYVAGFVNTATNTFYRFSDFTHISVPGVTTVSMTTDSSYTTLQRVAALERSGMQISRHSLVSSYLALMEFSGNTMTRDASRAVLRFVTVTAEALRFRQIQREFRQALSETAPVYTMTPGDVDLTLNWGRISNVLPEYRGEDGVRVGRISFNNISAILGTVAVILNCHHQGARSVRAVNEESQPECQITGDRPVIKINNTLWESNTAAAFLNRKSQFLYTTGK

In the case of `N=C(N)NCCC[C@H](NC(=O)[C@H](CCCNC(=N)N)NC(=O)[C@@H](N)CCCNC(=N)N)C(N)=O` [R3-mono] (H-Arg-Arg-Arg-NH2), the IC50 is 3.68 µM against Stx2a A-subunit and 78.7 ± 4.7 µM in assay [1].

For `C[C@H](NC(=O)[C@H](CCCNC(=N)N)NC(=O)[C@H](CCCNC(=N)N)NC(=O)[C@H](CCCNC(=N)N)NC(=O)[C@@H](N)CCCNC(=N)N)C(N)=O` [R4A-mono] (H-RRRRA-NH2), half-maximal inhibition in assay [1] (IC50) required 56.8 ± 2.8 µM.

Take `C[C@H](NC(=O)[C@H](CCCNC(=N)N)NC(=O)[C@@H](N)CCCNC(=N)N)C(N)=O` [R2A-mono] (H-Arg-Arg-Ala-NH2): the IC50 on Stx2a A-subunit turned out to be 132 µM; in assay [1], 66 ± 17 µM.

In turn, `CSCC[C@H](NC(=O)[C@H](C)NC(=O)[C@@H](N)CCSC)C(=O)N[C@@H](CCSC)C(=O)NCCC(=O)N[C@@H](CCCNC(=N)N)C(=O)N[C@@H](CCCNC(=N)N)C(=O)N[C@@H](CCCNC(=N)N)C(=O)N[C@@H](CCCNC(=N)N)C(=O)N[C@@H](C)C(N)=O` [MMβA-mono, reference compound] (H-MAMM[βAla]RRRRA-NH2) showed a 50% inhibitory concentration (IC50) in assay [1] of 21 ± 4 µM.

With `C[C@H](NC(=O)[C@H](CCCNC(=N)N)NC(=O)[C@H](CCCNC(=N)N)NC(=O)[C@@H](N)CCCNC(=N)N)C(N)=O` [R3A-mono] (H-RRRA-NH2), the IC50 stood at 89.6 µM against Stx2a A-subunit and 52.1 ± 3.5 µM in assay [1].

Regarding `N=C(N)NCCC[C@H](NC(=O)[C@H](CCCNC(=N)N)NC(=O)[C@H](CCCNC(=N)N)NC(=O)[C@@H](N)CCCNC(=N)N)C(N)=O` [R4-mono] (H-RRRR-NH2), the IC50 against Stx2a A-subunit amounted to 0.387 µM; in assay [1] it was 55.4 ± 8.9 µM.

As for `C[C@H](N)C(=O)N[C@@H](CCCNC(=N)N)C(=O)N[C@@H](CCCNC(=N)N)C(=O)N[C@@H](CCCNC(=N)N)C(=O)N[C@@H](CCCNC(=N)N)C(=O)N[C@@H](C)C(N)=O` [AR4A-mono] (H-ARRRRA-NH2), the IC50 against Stx2a A-subunit turned out to be 2.27 µM; in assay [1] it was 51.6 ± 2.2 µM.

What is called IC50 is the point on the concentration scale where inhibition reaches its midpoint.
